Test results: patent US6127519A, “Calcitonin derivatives” (Tsumura & Co., priority 1990, dated 2000)
Numbered stars: 1 amine (or outer) side, 2 acyl side, 3 side chain; on linkers, the order of the positions; unused ones are H or OH. Bridge positions count the residues as written; N and C are the ends. Peptide text beside a SMILES is read from it. Suc = O=C(CCC(=O)[*:2])[*:1]

Tested on: calcium concentration in the serum
Test: Test 1: reduction of calcium level in serum after tail vein administration to rats
Type: in vivo, rats of the Wistar strain
Conditions: 1 ml/kg tail vein, female Wistar rats
Experimental: Six-weeks-old female rats of the Wistar strain (each group consisting of 4 rats) were used as the test animal, and the peptides of the present invention obtained in the examples given hereinafter were tested at concentrations adjusted with a 1% aqueous solution of sodium acetate (pH 4,0) to which 0.1% bovine serum albumin (BSA) was added. The solution was adjusted to a concentration of 166 μg/ml 830 ng/ml or 83 ng/ml and administered with the tail vein in an amount of 1 ml/kg. The back of the rat was fixed and blood was collected just before the administration, and at predetermined intervals after the administration, from the neck vein. The amount of blood collected each time was 0.3 ml. The sampled blood was subjected to centrifugal separation at 3500 rpm for 20 minutes to separate serum and the calcium content in the separated serum was measured by TBA-380 (supplied by Toshiba) using a Wako calcium-measuring kit (o-cpc method), and the ratio of reduction of the calcium concentration in the serum was determined.

[1] = concentration 83 ng/ml, 0 hour (just before administration)
[2] = concentration 83 ng/ml, 2 hours
[3] = concentration 83 ng/ml, 4 hours
[4] = concentration 83 ng/ml, 6 hours
[5] = concentration 830 ng/ml, 0 hour (just before administration)
[6] = concentration 830 ng/ml, 1 hour
[7] = concentration 830 ng/ml, 2 hours
[8] = concentration 830 ng/ml, 4 hours
[9] = concentration 830 ng/ml, 6 hours

Row | Compound | Serum calcium level as percent of pre-dose baseline [1] | Serum calcium level as percent of pre-dose baseline (concentration 83 ng/ml, 1 hour) | Serum calcium level as percent of pre-dose baseline [2] | Serum calcium level as percent of pre-dose baseline [3] | Serum calcium level as percent of pre-dose baseline [4] | Serum calcium level as percent of pre-dose baseline [5] | Serum calcium level as percent of pre-dose baseline [6] | Serum calcium level as percent of pre-dose baseline [7] | Serum calcium level as percent of pre-dose baseline [8] | Serum calcium level as percent of pre-dose baseline [9]
1 | Peptide No. 22: novel calcitonin-derivative peptide, aminosuberic acid (carba) ring, Leu8, SEQ ID NO:22 (XGNLSTALLGKLSQELHKLQTYPQTAIGVGAP; aminosuberic acid carba ring) | 100.0% | 76.1% | 70.7% | 70.7% | 75.9% | 100.0% | 77.2% | 70.7% | 55.8% | 48.5%
2 | CC[C@H](C)[C@H](NC(=O)[C@H](C)NC(=O)[C@@H](NC(=O)[C@H](CCC(N)=O)NC(=O)[C@@H]1CCCN1C(=O)[C@H](Cc1ccc(O)cc1)NC(=O)[C@@H](NC(=O)[C@H](CCC(N)=O)NC(=O)[C@H](CCCCN)NC(=O)[C@H](Cc1c[nH]cn1)NC(=O)[C@H](CC(C)C)NC(=O)[C@H](CCC(=O)O)NC(=O)[C@H](CCC(N)=O)NC(=O)[C@H](CO)NC(=O)[C@H](CC(C)C)NC(=O)[C@H](CCCCN)NC(=O)CNC(=O)[C@H](CC(C)C)NC(=O)[C@H](CCSC)NC(=O)[C@@H]1CSSC[C@H](N)C(=O)NCC(=O)N[C@@H](CC(N)=O)C(=O)N[C@@H](CC(C)C)C(=O)N[C@@H](CO)C(=O)N[C@@H]([C@@H](C)O)C(=O)N1)[C@@H](C)O)[C@@H](C)O)C(=O)NCC(=O)N[C@@H](CO)C(=O)NCC(=O)N[C@H](C(=O)N1CCC[C@H]1C(N)=O)[C@@H](C)O [Peptide No. 6] (H-CGNLSTCMLGKLSQELHKQTYPQTAIGSGTP-NH2; disulfide 1-7) | – | – | – | – | – | 100.0% | 73.1% | 68.1% | 74.6% | 92.1%
3 | CC[C@H](C)[C@H](NC(=O)[C@H](C)NC(=O)[C@@H](NC(=O)[C@H](CCC(N)=O)NC(=O)[C@@H]1CCCN1C(=O)[C@H](Cc1ccc(O)cc1)NC(=O)[C@@H](NC(=O)[C@H](CCC(N)=O)NC(=O)[C@H](CC(C)C)NC(=O)[C@H](CCCCN)NC(=O)[C@H](Cc1c[nH]cn1)NC(=O)[C@H](CC(C)C)NC(=O)[C@H](CCC(=O)O)NC(=O)[C@H](CCC(N)=O)NC(=O)[C@H](CO)NC(=O)[C@H](CC(C)C)NC(=O)[C@H](CCCCN)NC(=O)CNC(=O)[C@H](CC(C)C)NC(=O)[C@H](CCSC)NC(=O)[C@@H]1CSSC[C@H](N)C(=O)NCC(=O)N[C@@H](CC(N)=O)C(=O)N[C@@H](CC(C)C)C(=O)N[C@@H](CO)C(=O)N[C@@H]([C@@H](C)O)C(=O)N1)[C@@H](C)O)[C@@H](C)O)C(=O)NCC(=O)N[C@@H](CO)C(=O)NCC(=O)N[C@H](C(=O)N1CCC[C@H]1C(N)=O)[C@@H](C)O [Peptide No. 5] (H-CGNLSTCMLGKLSQELHKLQTYPQTAIGSGTP-NH2; disulfide 1-7) | – | – | – | – | – | 100.0% | 76.4% | 74.2% | 70.7% | 76.4%
4 | CC[C@H](C)[C@H](NC(=O)[C@H](C)NC(=O)[C@@H](NC(=O)[C@H](CCC(N)=O)NC(=O)[C@@H]1CCCN1C(=O)[C@H](Cc1ccc(O)cc1)NC(=O)[C@@H](NC(=O)[C@H](CCC(N)=O)NC(=O)CNC(=O)[C@H](CCCCN)NC(=O)[C@H](Cc1c[nH]cn1)NC(=O)[C@H](CC(C)C)NC(=O)[C@H](CCC(=O)O)NC(=O)[C@H](CCC(N)=O)NC(=O)[C@H](CO)NC(=O)[C@H](CC(C)C)NC(=O)[C@H](CCCCN)NC(=O)CNC(=O)[C@H](CC(C)C)NC(=O)[C@H](CCSC)NC(=O)[C@@H]1CSSC[C@H](N)C(=O)NCC(=O)N[C@@H](CC(N)=O)C(=O)N[C@@H](CC(C)C)C(=O)N[C@@H](CO)C(=O)N[C@@H]([C@@H](C)O)C(=O)N1)[C@@H](C)O)[C@@H](C)O)C(=O)NCC(=O)N[C@H](C(=O)NCC(=O)N[C@@H](C)C(=O)N1CCC[C@H]1C(N)=O)C(C)C [Peptide No. 4] (H-CGNLSTCMLGKLSQELHKGQTYPQTAIGVGAP-NH2; disulfide 1-7) | – | – | – | – | – | 100.0% | 90.5% | 92.0% | 95.5% | 86.7%
5 | CC[C@H](C)[C@H](NC(=O)[C@H](C)NC(=O)[C@@H](NC(=O)[C@H](CCC(N)=O)NC(=O)[C@@H]1CCCN1C(=O)[C@H](Cc1ccc(O)cc1)NC(=O)[C@@H](NC(=O)[C@H](Cc1c[nH]cn1)NC(=O)[C@H](Cc1ccccc1)NC(=O)[C@H](CCCCN)NC(=O)[C@H](CC(N)=O)NC(=O)[C@H](CC(C)C)NC(=O)[C@H](CC(=O)O)NC(=O)[C@H](CCC(N)=O)NC(=O)[C@@H](NC(=O)[C@H](CC(C)C)NC(=O)[C@H](CCCCN)NC(=O)CNC(=O)[C@H](CC(C)C)NC(=O)[C@H](CC(C)C)NC(=O)[C@@H]1CCCCNC(=O)CCC(=O)N[C@@H](CC(N)=O)C(=O)N[C@@H](CC(C)C)C(=O)N[C@@H](CO)C(=O)N[C@@H]([C@@H](C)O)C(=O)N1)[C@@H](C)O)[C@@H](C)O)[C@@H](C)O)C(=O)NCC(=O)N[C@H](C(=O)NCC(=O)N[C@@H](C)C(=O)N1CCC[C@H]1C(N)=O)C(C)C [Peptide No. 33] (NLSTKLLGKLTQDLNKFHTYPQTAIGVGAP-NH2; linker N-5 via Suc) | 100.0% | 78.2% | 70.0% | 92.4% | 86.0% | 100.0% | 80.8% | 71.8% | 63.5% | 55.1%
6 | CC[C@H](C)[C@H](NC(=O)[C@H](C)NC(=O)[C@@H](NC(=O)[C@H](CCC(N)=O)NC(=O)[C@@H]1CCCN1C(=O)[C@H](Cc1ccc(O)cc1)NC(=O)[C@H](CC(C)C)NC(=O)[C@H](CCCCN)NC(=O)[C@H](Cc1c[nH]cn1)NC(=O)[C@H](CC(C)C)NC(=O)[C@H](CCC(=O)O)NC(=O)[C@H](CCC(N)=O)NC(=O)[C@H](CO)NC(=O)[C@H](CC(C)C)NC(=O)[C@H](CCCCN)NC(=O)CNC(=O)[C@H](CC(C)C)NC(=O)[C@H](CCSC)NC(=O)[C@@H]1CSSC[C@H](N)C(=O)NCC(=O)N[C@@H](CC(N)=O)C(=O)N[C@@H](CC(C)C)C(=O)N[C@@H](CO)C(=O)N[C@@H]([C@@H](C)O)C(=O)N1)[C@@H](C)O)C(=O)NCC(=O)N[C@@H](CO)C(=O)NCC(=O)N[C@H](C(=O)N1CCC[C@H]1C(N)=O)[C@@H](C)O [Peptide No. 7] (H-CGNLSTCMLGKLSQELHKLYPQTAIGSGTP-NH2; disulfide 1-7) | – | – | – | – | – | 100.0% | 81.9% | 91.7% | 97.4% | 100.0%
7 | CC[C@H](C)[C@H](NC(=O)[C@H](C)NC(=O)[C@@H](NC(=O)[C@H](CCC(N)=O)NC(=O)[C@@H]1CCCN1C(=O)[C@H](Cc1ccc(O)cc1)NC(=O)[C@@H](NC(=O)[C@H](CCC(N)=O)NC(=O)[C@H](CCCCN)NC(=O)[C@H](Cc1c[nH]cn1)NC(=O)[C@H](CC(C)C)NC(=O)[C@H](CCC(=O)O)NC(=O)[C@H](CCC(N)=O)NC(=O)[C@H](CO)NC(=O)[C@H](CC(C)C)NC(=O)[C@H](CCCCN)NC(=O)CNC(=O)[C@H](CC(C)C)NC(=O)[C@H](CCSC)NC(=O)[C@@H]1CSSC[C@H](N)C(=O)NCC(=O)N[C@@H](CC(N)=O)C(=O)N[C@@H](CC(C)C)C(=O)N[C@@H](CO)C(=O)N[C@@H]([C@@H](C)O)C(=O)N1)[C@@H](C)O)[C@@H](C)O)C(=O)NCC(=O)N[C@H](C(=O)NCC(=O)N[C@@H](C)C(=O)N1CCC[C@H]1C(N)=O)C(C)C [Peptide No. 2] (H-CGNLSTCMLGKLSQELHKQTYPQTAIGVGAP-NH2; disulfide 1-7) | – | – | – | – | – | 100.0% | 86.7% | 87.7% | 92.8% | 90.1%
